In patent publication US20120040898A1, “PHARMACEUTICAL COMPOSITIONS” (TAISHO PHARMACEUTICAL CO., LTD, priority 2009, published 2012):
Structures can show the parent of a compound that is named as a salt.

How the values were obtained:
Type in all cases: in vivo
Zucker fatty rats [1] = assay: Combination treatment of compound A and acarbose in diabetic rats (soluble starch loading); details: fasted Zucker fatty rats; single oral dose compound A 1 mg/kg, acarbose 1 mg/kg, alone or combined; soluble starch 2 g/kg one minute later; up to 120 minutes; mean ± standard error
Description: Six male Zucker fatty rats (11-week old) were fasted and orally administered with single doses of compound A (1 mg/kg) and an α-glucosidase inhibitor, acarbose (1 mg/kg), either alone or in combination. […] Wako Pure Chemical Industries, Ltd.)

db/db mice [2] = assay: Chronic combination treatment of compound A and pioglitazone in diabetic mice; details: compound A 3 mg/kg, pioglitazone 10 mg/kg, once daily oral, alone or combined, 27 days, mean ± standard error; for Change in GHb (%): after minus before; for Change in plasma IRI level: non-fasting
db/db mice [3] = assay: Chronic combination treatment of compound A and metformin hydrochloride in diabetic mice; details: mean ± standard error; for Change in GHb (%) / Change in plasma IRI level: 27 days; for Fasting plasma glucose level: after 27 days, fasted 16 hours; for Change in plasma IRI level: non-fasting
Zucker fatty rats [4] = assay: Combination treatment of compound A and voglibose in diabetic rats (soluble starch loading); details: fasted Zucker fatty rats; single oral dose compound A 1 mg/kg, voglibose 0.1 mg/kg, alone or combined; soluble starch 2 g/kg one minute later; up to 120 minutes; mean ± standard error
Description: Six male Zucker fatty rats (10-week old) were fasted and orally administered with single doses of compound A (1 mg/kg) and an α-glucosidase inhibitor, voglibose (0.1 mg/kg), either alone or in combination. […] Wako Pure Chemical Industries, Ltd.)

[5] = tested on: rats with STZ-induced diabetes mellitus; assay: Combination treatment of compound A and insulin in diabetic rats; details: STZ diabetic SD rats, non-fasting; single oral dose compound A 1 mg/kg, subcutaneous slow-release insulin implant (one pellet), alone or combined; up to 8 hours; mean ± standard error
Description: SD rats (7-week old; CHARLES RIVER LABORATORIES JAPAN, INC.) were intraperitoneally administered with streptozocin (SIGMA-ALDRICH JAPAN K.K.; hereinafter abbreviated as STZ) to induce diabetes. The rats with STZ-induced diabetes mellitus (8-week old) underwent subcutaneous implant of a slow-release insulin (one pellet of […] Canada, Inc.) or sham operation. […] Blood was taken from the tail vein of each rat at specified time intervals and centrifuged to collect plasma. […] Wako Pure Chemical Industries, Ltd.)

Zucker fatty rats [6] = assay: Combination treatment of compound A and sitagliptin in diabetic rats (oral glucose loading); details: fasted Zucker fatty rats; single oral dose compound A 1 mg/kg, sitagliptin 0.3 mg/kg, alone or combined; glucose 2 g/kg one hour later; up to 120 minutes; mean ± standard error
Description: Eight male Zucker fatty rats/group (10-week old) were fasted and orally administered with single doses of compound A (1 mg/kg) and a DPP-IV inhibitor, sitagliptin (0.3 mg/kg), either alone or in combination. […] Wako Pure Chemical Industries, Ltd.)

Zucker fatty rats [7] = assay: Combination treatment of compound A and vildagliptin in diabetic rats (oral glucose loading); details: fasted Zucker fatty rats; single oral dose compound A 1 mg/kg, vildagliptin 3 mg/kg, alone or combined; glucose 2 g/kg one hour later; up to 120 minutes; mean ± standard error
Description: One hour after the administration, the rats were orally administered with glucose solutions (2 g/kg); blood was taken from the tail vein of each rat at specified time intervals and centrifuged to collect plasma. Plasma glucose levels were measured by mutarotase-GOD method with a glucose assay kit (Glucose C2 Test Wako; Wako Pure Chemical Industries, Ltd.)

[8] = tested on: high-fat diet loaded mice with STZ-induced diabetes mellitus; assay: Combination treatment of compound A and glibenclamide in diabetic mice; details: high-fat diet STZ diabetic ICR mice, non-fasting; single oral dose compound A 1 mg/kg, glibenclamide 10 mg/kg, alone or combined; up to 8 hours; mean ± standard error
Description: After 3 weeks a high-fat diet (D12492 of Research Diets, Inc.) feeding, ICR mice (CHARLES RIVER LABORATORIES JAPAN, INC.) were intraperitoneally administered with streptozocin (SIGMA-ALDRICH JAPAN K.K.; hereinafter abbreviated as STZ) to induce diabetes. […] SIGMA-ALDRICH JAPAN K.K.), either alone or in combination. Blood was taken from the tail vein of each mouse at specified time intervals and centrifuged to collect plasma. […] Wako Pure Chemical Industries, Ltd.)

[9] = tested on: high-fat diet loaded mice with STZ-induced diabetes mellitus; assay: Combination treatment of compound A and glipizide in diabetic mice; details: high-fat diet STZ diabetic ICR mice, non-fasting; single oral dose compound A 1 mg/kg, glipizide 10 mg/kg, alone or combined; up to 8 hours; mean ± standard error
Description: After 3 weeks a high-fat diet (D12492 of Research Diets, Inc.) feeding, ICR mice (CHARLES RIVER LABORATORIES JAPAN, INC.) were intraperitoneally administered streptozocin (SIGMA-ALDRICH JAPAN K.K.; hereinafter abbreviated as STZ) to induce diabetes. […] SIGMA-ALDRICH JAPAN K.K.), either alone or in combination. Blood was taken from the tail vein of each mouse at specified time intervals and plasma glucose levels were measured by GOD colorimetry with a self-testing glucose measuring instrument (Medisafe Mini GR-102; TERUMO CORPORATION, Japan).

KKAy mice [10] = assay: Chronic combination treatment of compound A and glimepiride in diabetic mice; details: non-fasting, compound A 0.03% mixed diet, glimepiride 0.5 mg/kg once daily, alone or combined, one hour after drug administration, mean ± standard error
Description: Seven or eight female KKAy mice/group (4-week old; CLEA JAPAN, Inc.) were orally administered with repeated doses of compound A (0.03% mixed diet; ad libitum) and an insulin secretagogue, glimepiride (0.5 mg/kg, once daily; SIGMA-ALDRICH JAPAN K.K.), either alone or in combination, for 8 weeks. […] Plasma glucose levels were measured by the GDH electrode method with a self-testing glucose measuring instrument (Glutest Neo Super; […]

KKAy mice [11] = assay: Combination treatment of compound A and glimepiride in diabetic mice; details: non-fasting, single oral dose compound A 10 mg/kg, glimepiride 0.5 mg/kg, alone or combined, up to 3 hours, mean ± standard error
Description: (§1) CLEA Japan, Inc.) and 10 female C57BL mice/group (normal mice; 4-week old; CLEA Japan, Inc.) were orally administered with single doses of compound A (10 mg/kg) and an insulin secretagogue, glimepiride (0.5 mg/kg; SIGMA-ALDRICH JAPAN K.K.), either alone or in combination. Blood was taken from the tail vein of each mouse at specified time intervals and plasma glucose levels were measured by the GDH electrode method with a self-testing glucose measuring instrument (Glutest Neo Super; […] CO., LTD.)

Zucker fatty rats [12] = assay: Combination treatment of compound A and miglitol in diabetic rats (soluble starch loading); details: fasted Zucker fatty rats; single oral dose compound A 0.5 mg/kg, miglitol 3 mg/kg, alone or combined; soluble starch 2 g/kg one minute later; up to 120 minutes; mean ± standard error
Description: Six male Zucker fatty rats (9-week old) were fasted and orally administered with single doses of compound A (0.5 mg/kg) and an α-glucosidase inhibitor, miglitol (3 mg/kg), either alone or in combination. One minute after the administration, the rats were orally administered with soluble starch solutions (2 g/kg); blood was taken from the tail vein of each rat at specified time intervals and centrifuged to collect plasma. Plasma glucose levels were measured by mutarotase-GOD method with a glucose assay kit (Glucose C2 Test Wako; Wako Pure Chemical Industries, Ltd.)

C57BL mice = assay: Combination treatment of compound A and glimepiride in normal mice; details: normoglycemic C57BL mice, non-fasting; single oral dose compound A 10 mg/kg, glimepiride 0.5 mg/kg, alone or combined; up to 3 hours; mean ± standard error
Description: as §1

[13] = metformin hydrochloride 100 mg/kg, alone or with compound A 3 mg/kg
[14] = metformin hydrochloride 300 mg/kg, alone or with compound A 3 mg/kg

C[C@H]1O[C@H](O[C@H]2[C@H](O)[C@@H](O)[C@@H](O[C@H]3[C@H](O)[C@@H](O)C(O)O[C@@H]3CO)O[C@@H]2CO)[C@H](O)[C@@H](O)[C@@H]1N[C@H]1C=C(CO)[C@@H](O)[C@H](O)[C@H]1O (stereo partly drawn) [Acarbose, acarbose]
Δ plasma glucose AUC (Zucker fatty rats [1]): 10192.8 ± 913.6 mg·min/dL

CCOc1ccc(Cc2cc([C@@H]3S[C@H](CO)[C@@H](O)[C@H](O)[C@H]3O)c(OC)cc2C)cc1 [Compound A, (1S)-1,5-anhydro-1-[5-(4-ethoxybenzyl)-2-methoxy-4-methylphenyl]-1-thio-D-glucitol]
Change in GHb (%) (db/db mice [2]): 3.15 ± 0.16% | Non-fasting plasma glucose level (db/db mice [2]): 607.9 ± 21.6 mg/dL | Change in plasma IRI level (db/db mice [2]): -27.81 ± 4.41 ng/dL | Change in GHb (%) (db/db mice [3]; compound A 3 mg/kg once daily oral, alone, GHb after minus before): 0.14 ± 0.39% | Fasting plasma glucose level (db/db mice [3]; compound A 3 mg/kg once daily oral, alone): 275.0 ± 28.7 mg/dL | Change in plasma IRI level (db/db mice [3]; compound A 3 mg/kg once daily oral, alone, after minus before): -5.01 ± 2.11 ng/mL | Δ plasma glucose AUC (Zucker fatty rats [4]): 10940.4 ± 952.7 mg·min/dL | Plasma glucose AUC [5]: 3983.4 ± 194.5 mg·h/dL | Δ plasma glucose AUC (Zucker fatty rats [1]): 9861.6 ± 1076.0 mg·min/dL | Δ plasma glucose AUC (Zucker fatty rats [6]): 11239.9 ± 617.8 mg·min/dL | Δ plasma glucose AUC (Zucker fatty rats [7]): 11690.1 ± 807.9 mg·min/dL | Δ plasma glucose AUC [8]: -130.1 ± 164.9 mg·h/dL | Δ plasma glucose AUC [9]: -310.3 ± 157.2 mg·h/dL | Plasma glucose level at 4 wk of administration (KKAy mice [10]): 154.8 ± 5.9 mg/dL | Plasma glucose level at 8 wk of administration (KKAy mice [10]): 168.6 ± 2.2 mg/dL | Δ plasma glucose AUC (KKAy mice [11]): -83.0 ± 14.6 mg·h/dL | Δ plasma glucose AUC (Zucker fatty rats [12]): 11655.9 ± 1021.8 mg·min/dL | Δ plasma glucose AUC (C57BL mice): -4.2 ± 8.5 mg·h/dL

COc1ccc(Cl)cc1C(=O)NCCc1ccc(S(=O)(=O)NC(=O)NC2CCCCC2)cc1 [Glibenclamide, glibenclamide]
Δ plasma glucose AUC [8]: 140.3 ± 107.2 mg·h/dL

CCC1=C(C)CN(C(=O)NCCc2ccc(S(=O)(=O)NC(=O)N[C@H]3CC[C@H](C)CC3)cc2)C1=O [Glimepiride, glimepiride]
Plasma glucose level at 4 wk of administration (KKAy mice [10]): 137.6 ± 13.3 mg/dL | Plasma glucose level at 8 wk of administration (KKAy mice [10]): 160.4 ± 8.2 mg/dL | Δ plasma glucose AUC (KKAy mice [11]): -118.6 ± 20.2 mg·h/dL | Δ plasma glucose AUC (C57BL mice): -104.0 ± 9.3 mg·h/dL

CN(C)C(=N)N=C(N)N [Metformin hydrochloride, metformin hydrochloride]
Fasting plasma glucose level (db/db mice [3]; [13]): 378.3 ± 33.4 mg/dL | Change in GHb (%) (db/db mice [3]; metformin hydrochloride 100 mg/kg, alone or with compound A 3 mg/kg, oral): 2.08 ± 0.33% | Fasting plasma glucose level (db/db mice [3]; [14]): 254.0 ± 24.7 mg/dL | Change in GHb (%) (db/db mice [3]; metformin hydrochloride 300 mg/kg, alone or with compound A 3 mg/kg, oral): 1.70 ± 0.23% | Change in plasma IRI level (db/db mice [3]; [13]): -9.81 ± 0.91 ng/mL | Change in plasma IRI level (db/db mice [3]; [14]): -7.36 ± 1.29 ng/mL

OCCN1C[C@H](O)[C@@H](O)[C@H](O)[C@H]1CO [Miglitol, miglitol]
Δ plasma glucose AUC (Zucker fatty rats [12]): 8909.4 ± 1390.0 mg·min/dL

CCc1ccc(CCOc2ccc(CC3SC(=O)NC3=O)cc2)nc1 (stereo not drawn) [Pioglitazone, pioglitazone]
Change in GHb (%) (db/db mice [2]): 3.04 ± 0.36% | Non-fasting plasma glucose level (db/db mice [2]): 555.2 ± 56.9 mg/dL | Change in plasma IRI level (db/db mice [2]): -43.29 ± 3.83 ng/dL

N[C@@H](CC(=O)N1CCn2c(nnc2C(F)(F)F)C1)Cc1cc(F)c(F)cc1F [Sitagliptin, sitagliptin]
Δ plasma glucose AUC (Zucker fatty rats [6]): 13881.4 ± 1292.9 mg·min/dL

OCC(CO)N[C@H]1C[C@](O)(CO)[C@@H](O)[C@H](O)[C@H]1O [Voglibose, voglibose]
Δ plasma glucose AUC (Zucker fatty rats [4]): 12395.5 ± 543.0 mg·min/dL
